Converted amounts (≈) assume the structure as drawn.

Here are results for two compounds from patent US10717749B2, “Macrocyclic sulfondiimine compounds” (BAYER PHARMA AKTIENGESELLSCHAFT, priority 2015, dated 2020).

One data set has as its system HeLa-MaTu-ADR. Kind of data set: Proliferation assay, crystal violet. Type of data set: cell-based. The conditions noted are these: Homo sapiens, 96 h, 4 days, read-out: Inhibition of HeLa-MaTu-ADR cell proliferation IC50. The protocol:
Cultivated tumour cells (HeLa, human cervical tumour cells, ATCC CCL-2; NCI—H460, human non-small cell lung carcinoma cells, ATCC HTB-177; DU 145, hormone-independent human prostate carcinoma cells, ATCC HTB-81; HeLa-MaTu-ADR, multidrug-resistant human cervical carcinoma cells, EPO-GmbH Berlin; Caco-2, human colorectal carcinoma cells, ATCC HTB-37; B16F10, mouse melanoma cells, ATCC CRL-6475) were plated at a density of 3,500 cells/well (DU145), 3,000 cells/well (HeLa-MaTu-ADR), 1,500 cells/well (NCI—H460), 3,000 cells/well (HeLa), 2,000 cells/well (Caco-2), or 1,000 cells/well (B16F10) in a 96-well multititer plate in 150 μL of their respective growth medium supplemented 10% fetal calf serum. After 24 hours, the cells of one plate (zero-point plate) were stained with crystal violet (see below), the test substances were added in various concentrations (0 μM, as well as in the range of 0.0001-10 μM) employing HP Dispenser. The cells were incubated for 4 days in the presence of test substances. Cell proliferation was determined by staining the cells with crystal violet: the cells were fixed by adding 20 μl/measuring point of an 11% glutaric aldehyde solution for 15 minutes at room temperature. After three washing cycles of the fixed cells with water, the plates were dried at room temperature. The cells were stained by adding 100 μl/measuring point of a 0.1% crystal violet solution DU 145, Caco-2, HeLa (pH 4.5) B16F10, NCI—H460, HeLa-MaTu-ADR. After three washing cycles of the stained cells with water, the plates were dried at room temperature. The dye was dissolved by adding 100 μl per measuring point of a 10% acetic acid solution. The extinction was determined by photometry at a wavelength of 595/550/620 nm depending on the intensity of coloration, usually at 595 nm. The change of cell number, in percent, was calculated by normalization of the measured values to the extinction values of the zero-point plate (=0%) and the extinction of the untreated (0 μM) cells (=100%). The IC50 values (inhibitory concentration at 50% of maximal effect) were determined by means of a 4 parameter fit.

The nature of data set [1]: Thermodynamic solubility in water from powder (Method 4b). Type of data set: physicochemical. To be noted: phosphate buffer, aqueous buffer, thermodynamic from solid; pH 6.5, Method 4b. The protocol:
4b) Thermodynamic Solubility in Water from Powder
The thermodynamic solubility of compounds in water was determined by an equilibrium shake flask method (see for example: E. H. Kerns, L. Di: Drug-like Properties: Concepts, Structure Design and Methods, 276-286, Burlington, Mass., Academic Press, 2008). A saturated solution of the drug was prepared and the solution was mixed for 24 h to ensure that equilibrium was reached. The solution was centrifuged to remove the insoluble fraction and the concentration of the compound in solution was determined using a standard calibration curve. To prepare the sample, 2 mg solid compound was weighed in a 4 mL glass vial. 1 mL phosphate buffer pH 6.5 was added. The suspension was stirred for 24 hrs at room temperature. The solution was centrifuged afterwards. To prepare the sample for the standard calibration, 2 mg solid sample was dissolved in 30 mL acetonitrile. After sonification the solution was diluted with water to 50 mL. Sample and standards were quantified by HPLC with UV-detection. For each sample two injection volumes (5 and 50 μl) in triplicates were made. Three injection volumes (5 μl, 10 μl and 20 μl) were made for the standard. […]
The areas of sample- and standard injections as well as the calculation of the solubility value (in mg/l) were determined by using HPLC software (Waters Empower 2 FR).

`CS(=N)(=N)Cc1cc2nc(c1)OCCCOc1cc(F)ccc1-c1cc(ncc1F)N2` [Example 1, 15,19-difluoro-8-[(S-methylsulfonodiimidoyl)methyl]-3,4-dihydro-2H,11H-10,6-(azeno)-12,16-(metheno)-1,5,11,13-benzodioxadiazacyclooctadecine]: the IC50 in the data set on HeLa-MaTu-ADR amounted to 7.8 nM.

With `CS(=N)(=N)Cc1cc2cc(c1)OCCCCOc1cc(F)ccc1-c1nc(ncc1F)N2` [Example 5, 16,20-difluoro-9-[(S-methylsulfonodiimidoyl)methyl]-2,3,4,5-tetrahydro-12H-13,17-(azeno)-11,7-(metheno)-1,6,12,14-benzodioxadiazacyclononadecine], the solubility (thermodynamic) (in general, the concentration in solution at equilibrium with solid) at 24 h in data set [1] was 58 µg/mL (≈ 126 µM).
